# In patent publication US9296757B2, “Substituted benzothienopyrimidines” (BAYER PHARMA AKTIENGESELLSCHAFT, priority 2012, dated 2016):
# Biological target: human full-length MKNK1 (Homo sapiens (Human), UniProt Q9BUB5, T344D)
# Assay: MKNK1 kinase high ATP assay (TR-FRET)
# Format: biochemical
# Details: high ATP (2 mM final), 15 min preincubation with enzyme
# Summary of the method: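 GST-tagged full-length MKNK1 (T344D), insect-cell expressed, preincubated 15 min at 22 °C with compound, then reacted 30 min at 22 °C with 2 mM ATP and 0.06 μM biotinylated peptide in HEPES pH 7.5 buffer (final concentrations). Phospho-peptide detected by TR-FRET (665/620 nm ratio), normalised to no-inhibitor and no-enzyme controls.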
# Chain of human full-length MKNK1 (Q9BUB5 other isoform, or with tags, fused parts or gaps T344D): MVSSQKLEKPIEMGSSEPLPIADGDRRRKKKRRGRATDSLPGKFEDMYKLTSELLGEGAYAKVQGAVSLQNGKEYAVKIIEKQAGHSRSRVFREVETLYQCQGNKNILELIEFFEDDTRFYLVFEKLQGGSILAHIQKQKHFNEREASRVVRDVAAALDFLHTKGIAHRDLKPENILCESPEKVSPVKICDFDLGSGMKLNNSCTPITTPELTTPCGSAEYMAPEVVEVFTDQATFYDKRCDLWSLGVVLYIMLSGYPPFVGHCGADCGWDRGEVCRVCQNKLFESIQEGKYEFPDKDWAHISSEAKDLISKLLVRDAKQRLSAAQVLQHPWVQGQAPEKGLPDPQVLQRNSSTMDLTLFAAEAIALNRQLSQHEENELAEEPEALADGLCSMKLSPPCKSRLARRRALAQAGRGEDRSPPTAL
row,IC50,Structure (SMILES)
1,32 nM,"CC1CN(C(=O)C2CCc3c(sc4ncnc(Nc5ccc6[nH]c(=O)sc6c5)c34)C2)CC(C)O1 (racemic) [Example 68, 6-{[(7RS)-7-{[(2RS,6RS)-2,6-dimethylmorpholin-4-yl]carbonyl}-5,6,7,8-tetrahydro[1]benzothieno[2,3-d]pyrimidin-4-yl]amino}-1,3-benzothiazol-2(3H)-one]"
2,19 nM,"CCCN(CCOC)C(=O)C1CCc2c(sc3ncnc(Nc4ccc5[nH]c(=O)sc5c4)c23)C1 (racemic) [Example 69, (RS)-N-(2-methoxyethyl)-4-[(2-oxo-2,3-dihydro-1,3-benzothiazol-6-yl)amino]-N-propyl-5,6,7,8-tetrahydro[1]benzothieno[2,3-d]pyrimidine-7-carboxamide]"
3,24 nM,"CCN(CCOC)C(=O)C1CCc2c(sc3ncnc(Nc4ccc5[nH]c(=O)sc5c4)c23)C1 (racemic) [Example 70, (RS)-N-ethyl-N-(2-methoxyethyl)-4-[(2-oxo-2,3-dihydro-1,3-benzothiazol-6-yl)amino]-5,6,7,8-tetrahydro[1]benzothieno[2,3-d]pyrimidine-7-carboxamide]"
4,47 nM,"O=C(C1CCc2c(sc3ncnc(Nc4ccc5[nH]c(=O)sc5c4)c23)C1)N1CCC(CO)CC1 (racemic) [Example 71, (RS)-6-[(7-{[4-(hydroxymethyl)piperidin-1-yl]carbonyl}-5,6,7,8-tetrahydro[1]benzothieno[2,3-d]pyrimidin-4-yl)amino]-1,3-benzothiazol-2(3H)-one]"
5,44 nM,"COCCN1CCN(C(=O)C2CCc3c(sc4ncnc(Nc5ccc6[nH]c(=O)sc6c5)c34)C2)CC1 (racemic) [Example 72, (RS)-6-[(7-{[4-(2-methoxyethyl)piperazin-1-yl]carbonyl}-5,6,7,8-tetrahydro[1]benzothieno[2,3-d]pyrimidin-4-yl)amino]-1,3-benzothiazol-2(3H)-one]"
6,34 nM,"CN(C)C1CCN(C(=O)C2CCc3c(sc4ncnc(Nc5ccc6[nH]c(=O)sc6c5)c34)C2)C1 (racemic) [Example 73, 6-{[(7RS)-7-{[(3RS)-3-(dimethylamino)pyrrolidin-1-yl]carbonyl}-5,6,7,8-tetrahydro[1]benzothieno[2,3-d]pyrimidin-4-yl]amino}-1,3-benzothiazol-2(3H)-one]"
7,47 nM,"CN1CC2CC1CN2C(=O)C1CCc2c(sc3ncnc(Nc4ccc5[nH]c(=O)sc5c4)c23)C1 (racemic) [Example 74, 6-{[(7RS)-7-{[(1RS,4RS)-5-methyl-2,5-diazabicyclo[2.2.1]hept-2-yl]carbonyl}-5,6,7,8-tetrahydro[1]benzothieno[2,3-d]pyrimidin-4-yl]amino}-1,3-benzothiazol-2(3H)-one]"
8,32 nM,"N#CC1CCCN(C(=O)C2CCc3c(sc4ncnc(Nc5ccc6[nH]c(=O)sc6c5)c34)C2)C1 (racemic) [Example 75, (3RS)-1-({(7RS)-4-[(2-oxo-2,3-dihydro-1,3-benzothiazol-6-yl)amino]-5,6,7,8-tetrahydro[1]benzothieno[2,3-d]pyrimidin-7-yl}carbonyl)piperidine-3-carbonitrile]"
9,54 nM,"N#CC1CCN(C(=O)C2CCc3c(sc4ncnc(Nc5ccc6[nH]c(=O)sc6c5)c34)C2)CC1 (racemic) [Example 76, (RS)-1-({4-[(2-oxo-2,3-dihydro-1,3-benzothiazol-6-yl)amino]-5,6,7,8-tetrahydro[1]benzothieno[2,3-d]pyrimidin-7-yl}carbonyl)piperidine-4-carbonitrile]"
10,41 nM,"COCC1CCCN1C(=O)C1CCc2c(sc3ncnc(Nc4ccc5[nH]c(=O)sc5c4)c23)C1 (racemic) [Example 77, 6-{[(7RS)-7-{[(2RS)-2-(methoxymethyl)pyrrolidin-1-yl]carbonyl}-5,6,7,8-tetrahydro[1]benzothieno[2,3-d]pyrimidin-4-yl]amino}-1,3-benzothiazol-2(3H)-one]"
11,34 nM,"O=C(C1CCc2c(sc3ncnc(Nc4ccc5[nH]c(=O)sc5c4)c23)C1)N1CCN(CC2CC2)CC1 (racemic) [Example 78, (RS)-6-[(7-{[4-(cyclopropylmethyl)piperazin-1-yl]carbonyl}-5,6,7,8-tetrahydro[1]benzothieno[2,3-d]pyrimidin-4-yl)amino]-1,3-benzothiazol-2(3H)-one]"
12,38 nM,"O=C(C1CCc2c(sc3ncnc(Nc4ccc5[nH]c(=O)sc5c4)c23)C1)N1CC(N2CCCCC2)C1 (racemic) [Example 79, (RS)-6-[(7-{[3-(piperidin-1-yl)azetidin-1-yl]carbonyl}-5,6,7,8-tetrahydro[1]benzothieno[2,3-d]pyrimidin-4-yl)amino]-1,3-benzothiazol-2(3H)-one]"
13,42 nM,"CN(C(=O)C1CCc2c(sc3ncnc(Nc4ccc5[nH]c(=O)sc5c4)c23)C1)C1CCOC(C)(C)C1 (racemic) [Example 80, (RS)-N-(2,2-dimethyltetrahydro-2H-pyran-4-yl)-N-methyl-4-[(2-oxo-2,3-dihydro-1,3-benzothiazol-6-yl)amino]-5,6,7,8-tetrahydro[1]benzothieno[2,3-d]pyrimidine-7-carboxamide]"
14,34 nM,"CN1CCN(C(=O)C2CCc3c(sc4ncnc(Nc5ccc6[nH]c(=O)sc6c5)c34)C2)CC1CCO (racemic) [Example 81, 6-{[(7RS)-7-{[(3RS)-3-(2-hydroxyethyl)-4-methylpiperazin-1-yl]carbonyl}-5,6,7,8-tetrahydro[1]benzothieno[2,3-d]pyrimidin-4-yl]amino}-1,3-benzothiazol-2(3H)-one]"
15,46 nM,"CN(CCN1CCOCC1)C(=O)C1CCc2c(sc3ncnc(Nc4ccc5[nH]c(=O)sc5c4)c23)C1 (racemic) [Example 82, (RS)-N-methyl-N-[2-(morpholin-4-yl)ethyl]-4-[(2-oxo-2,3-dihydro-1,3-benzothiazol-6-yl)amino]-5,6,7,8-tetrahydro[1]benzothieno[2,3-d]pyrimidine-7-carboxamide]"
16,52 nM,"O=C(C1CCc2c(sc3ncnc(Nc4ccc5[nH]c(=O)sc5c4)c23)C1)N1CC2(COC2)C1 (racemic) [Example 83, (RS)-6-{[7-(2-oxa-6-azaspiro[3.3]hept-6-ylcarbonyl)-5,6,7,8-tetrahydro[1]benzothieno[2,3-d]pyrimidin-4-yl]amino}-1,3-benzothiazol-2(3H)-one]"
17,30 nM,"COC1CCCN(C(=O)C2CCc3c(sc4ncnc(Nc5ccc6[nH]c(=O)sc6c5)c34)C2)C1 (racemic) [Example 84, 6-{[(7RS)-7-{[(3RS)-3-methoxypiperidin-1-yl]carbonyl}-5,6,7,8-tetrahydro[1]benzothieno[2,3-d]pyrimidin-4-yl]amino}-1,3-benzothiazol-2(3H)-one]"
18,4 nM,"COc1cc2[nH]c(=O)sc2cc1Nc1ncnc2sc3c(c12)CCC(C(=O)N(C)C)C3 (racemic) [Example 85, (RS)-4-[(5-methoxy-2-oxo-2,3-dihydro-1,3-benzothiazol-6-yl)amino]-N,N-dimethyl-5,6,7,8-tetrahydro[1]benzothieno[2,3-d]pyrimidine-7-carboxamide]"
19,3 nM,"CCN(C(=O)C1CCc2c(sc3ncnc(Nc4cc5sc(=O)[nH]c5cc4OC)c23)C1)C(C)C (racemic) [Example 86, (RS)—N-Ethyl-N-isopropyl-4-[(5-methoxy-2-oxo-2,3-dihydro-1,3-benzothiazol-6-yl)amino]-5,6,7,8-tetrahydro[1]benzothieno[2,3-d]pyrimidine-7-carboxamide]"
